In patent US9476099B2 (TRUSTEES OF DARTMOUTH COLLEGE, priority 2012, dated 2016):
Several values for one entry are separate records, joined by “and”; a condition that tells them apart may be missing. Equal values may be shown once.

Tested on: NT2/D1-R1 control and DNMT3B knockdown cells
Assay: Genome-wide expression analysis with PAM clusters, control and DNMT3B knockdown cells (Tables 8-14)
Settings: sh-3B + aza
[1] = NT2/D1-R1 DNMT3B knockdown, decitabine 10 nM 3 days

For `Nc1ncn([C@H]2C[C@H](O)[C@@H](CO)O2)c(=O)n1` [aza], which “LOC644422 XR_019449 expression Mean” value (10 nM decitabine, 3 days) is on record?
Its value is 223.185.

What about the “LOC647954 XR_018676 expression Mean” value (10 nM decitabine, 3 days) of the same compound?
Its value is 1052.7.

What about the “LOC728715 XM_0011282 expression Mean” value (10 nM decitabine, 3 days) of the same compound?
Its value is 877.255.

And the “M6PRBP1 NM_005817 expression Mean” value (10 nM decitabine, 3 days)?
The value was 907.761.

And the “MBNL3 NM_133486 expression Mean” value (10 nM decitabine, 3 days)?
The value was 272.09.

What about the “MCM4 NM_005914 expression Mean” value (10 nM decitabine, 3 days) of the same compound?
Its value is 2040.37.

What about the “MEPCE NM_019606 expression Mean” value (10 nM decitabine, 3 days) of the same compound?
Its value is 354.1.

And the “METTL1 NM_005371 expression Mean” value (10 nM decitabine, 3 days)?
The value was 266.779.

What about the “MORF4L2 NM_012286 expression Mean” value (10 nM decitabine, 3 days) of the same compound?
The value was 2564.56.

And the “MRTO4 NM_016183 expression Mean” value (10 nM decitabine, 3 days)?
Its value is 654.553.

And the “MT1E NM_175617 expression Mean” value (10 nM decitabine, 3 days)?
Its value is 1985.42.

And the “MTA2 NM_004739 expression Mean” value (10 nM decitabine, 3 days)?
Its value is 325.004.

What about the “MYOF NM_013451 expression Mean” value (10 nM decitabine, 3 days) of the same compound?
Its value is 177.015.

And the “MYOF NM_133337 expression Mean” value (10 nM decitabine, 3 days)?
Its value is 293.772.

And the “NACC2 NM_144653 expression Mean” value (10 nM decitabine, 3 days)?
Its value is 245.995.

What about the “NAT5 NM_181528 expression Mean” value (10 nM decitabine, 3 days) of the same compound?
Its value is 1059.57.

And the “NBPF10 NM_0010376 expression Mean” value (10 nM decitabine, 3 days)?
Its value is 370.658.

And the “NBPF10 NM_0010397 expression Mean” value (10 nM decitabine, 3 days)?
The value was 345.645.

What about the “NEFH NM_021076 expression Mean” value (10 nM decitabine, 3 days) of the same compound?
The value was 407.674.

And the “NFE2 NM_006163 expression Mean” value (10 nM decitabine, 3 days)?
Its value is 245.362.

And the “NM_002467 expression Mean” value (10 nM decitabine, 3 days)?
The value was 595.692.

And the “NM_0010397 expression Mean” value (10 nM decitabine, 3 days)?
Its value is 405.052.

And the “NM_138781 expression Mean” value (10 nM decitabine, 3 days)?
Its value is 305.526.

What about the “NODAL NM_018055 expression Mean” value (10 nM decitabine, 3 days) of the same compound?
Its value is 1549.19.

And the “NOP2 NM_0010337 expression Mean” value (10 nM decitabine, 3 days)?
Its value is 5354.42.

What about the “NOP56 NM_006392 expression Mean” value (10 nM decitabine, 3 days) of the same compound?
The value was 2368.5.

What about the “NP NM_000270 expression Mean” value (10 nM decitabine, 3 days) of the same compound?
Its value is 340.821.

And the “NR_002773 expression Mean” value (10 nM decitabine, 3 days)?
Its value is 394.199.

What about the “NR_003287 expression Mean” value (10 nM decitabine, 3 days) of the same compound?
The value was 182.319.

What about the “NTF3 NM_002527 expression Mean” value (10 nM decitabine, 3 days) of the same compound?
Its value is 184.819.

What about the “NTS NM_006183 expression Mean” value (10 nM decitabine, 3 days) of the same compound?
Its value is 457.501.

And the “NUAK2 NM_030952 expression Mean” value (10 nM decitabine, 3 days)?
The value was 225.181 and 195.684.

What about the “OAT NM_000274 expression Mean” value (10 nM decitabine, 3 days) of the same compound?
Its value is 2711.86.

What about the “ODC1 NM_002539 expression Mean” value (10 nM decitabine, 3 days) of the same compound?
The value was 2404.47.

And the “PAK1IP1 NM_017906 expression Mean” value (10 nM decitabine, 3 days)?
The value was 603.531.

And the “PEA15 NM_003768 expression Mean” value (10 nM decitabine, 3 days)?
The value was 969.289.

And the “PEG3 NM_006210 expression Mean” value (10 nM decitabine, 3 days)?
Its value is 256.384.

And the “PITX1 NM_002653 expression Mean” value (10 nM decitabine, 3 days)?
The value was 267.398.

What about the “PLAU NM_002658 expression Mean” value (10 nM decitabine, 3 days) of the same compound?
Its value is 325.966.

And the “PLEKHF1 NM_024310 expression Mean” value (10 nM decitabine, 3 days)?
Its value is 367.904.

What about the “POLR1C NM_203290 expression Mean” value (10 nM decitabine, 3 days) of the same compound?
Its value is 414.276 and 557.268.

What about the “PPA2 NM_006903 expression Mean” value (10 nM decitabine, 3 days) of the same compound?
Its value is 606.161.

And the “PPAN NM_002566 expression Mean” value (10 nM decitabine, 3 days)?
Its value is 287.832.

What about the “RBM22 NM_018047 expression Mean” value (10 nM decitabine, 3 days) of the same compound?
Its value is 700.828.

What about the “RNMTL1 NM_018146 expression Mean” value (10 nM decitabine, 3 days) of the same compound?
The value was 432.796.

What about the “RPL6 NM_0010246 expression Mean” value (10 nM decitabine, 3 days) of the same compound?
Its value is 1608.44.

And the “RRM2 NM_001034 expression Mean” value (10 nM decitabine, 3 days)?
Its value is 799.058.

And the “RSL1D1 NM_015659 expression Mean” value (10 nM decitabine, 3 days)?
Its value is 1458.69.

What about the “RUNX3 NM_004350 expression Mean” value (10 nM decitabine, 3 days) of the same compound?
The value was 191.132.

And the “SERPINE1 NM_000602 expression Mean” value (10 nM decitabine, 3 days)?
The value was 246.121.

What about the “SERTAD1 NM_013376 expression Mean” value (10 nM decitabine, 3 days) of the same compound?
The value was 291.604.

And the “SFXN4 NM_213649 expression Mean” value (10 nM decitabine, 3 days)?
The value was 481.671.

And the “SIDT2 NM_0010404 expression Mean” value (10 nM decitabine, 3 days)?
The value was 326.437.

What about the “SLC20A1 NM_005415 expression Mean” value (10 nM decitabine, 3 days) of the same compound?
Its value is 1225.68.

And the “SNAPC4 NM_003086 expression Mean” value (10 nM decitabine, 3 days)?
Its value is 599.752.

And the “SOCS2 NM_003877 expression Mean” value (10 nM decitabine, 3 days)?
Its value is 182.936 and 244.438.

What about the “SOX15 NM_006942 expression Mean” value (10 nM decitabine, 3 days) of the same compound?
The value was 1693.21.

What about the “SPANXD NM_145665 expression Mean” value (10 nM decitabine, 3 days) of the same compound?
Its value is 121.39.

What about the “SPRYD5 NM_032681 expression Mean” value (10 nM decitabine, 3 days) of the same compound?
Its value is 293.721.

What about the “SQSTM1 NM_003900 expression Mean” value (10 nM decitabine, 3 days) of the same compound?
The value was 885.073.

What about the “SRRT NM_015908 expression Mean” value (10 nM decitabine, 3 days) of the same compound?
Its value is 2745.27.

What about the “SUSD2 NM_019601 expression Mean” value (10 nM decitabine, 3 days) of the same compound?
The value was 1694.29.

What about the “TAGLN NM_003186 expression Mean” value (10 nM decitabine, 3 days) of the same compound?
Its value is 489.068.

What about the “TNFRSF12A NM_016639 expression Mean” value (10 nM decitabine, 3 days) of the same compound?
Its value is 296.715.

What about the “TNFRSF13B NM_012452 expression Mean” value (10 nM decitabine, 3 days) of the same compound?
The value was 214.796.

And the “TNPO1 NM_153188 expression Mean” value (10 nM decitabine, 3 days)?
The value was 240.816.

What about the “TPRG1L NM_182752 expression Mean” value (10 nM decitabine, 3 days) of the same compound?
The value was 762.223.

What about the “TRIM8 NM_030912 expression Mean” value (10 nM decitabine, 3 days) of the same compound?
Its value is 529.909.

What about the “TTC4 NM_004623 expression Mean” value (10 nM decitabine, 3 days) of the same compound?
The value was 851.239.

What about the “UTP14A NM_006649 expression Mean” value (10 nM decitabine, 3 days) of the same compound?
The value was 736.541.

What about the “WBSCR22 NM_017528 expression Mean” value (10 nM decitabine, 3 days) of the same compound?
The value was 958.822.

What about the “XM_0011261 expression Mean” value (10 nM decitabine, 3 days) of the same compound?
Its value is 824.879.

What about the “XM_0011281 expression Mean” value (10 nM decitabine, 3 days) of the same compound?
Its value is 1290.15.

And the “XR_015970 expression Mean” value (10 nM decitabine, 3 days)?
Its value is 527.915.

And the “XR_016703 expression Mean” value (10 nM decitabine, 3 days)?
The value was 4025.84.

What about the “XR_017241 expression Mean” value (10 nM decitabine, 3 days) of the same compound?
The value was 5144.11.

What about the “XR_017543 expression Mean” value (10 nM decitabine, 3 days) of the same compound?
The value was 410.447.

And the “ZDHHC6 NM_022494 expression Mean” value (10 nM decitabine, 3 days)?
Its value is 344.248.

And the “ZHX2 NM_014943 expression Mean” value (10 nM decitabine, 3 days)?
The value was 196.281.

What about the “A4GALT (NM_017436) gene expression, Mean” value [1] of the same compound?
The value was 279.705.

What about the “ABR (NM_001092) gene expression, Mean” value [1] of the same compound?
The value was 376.941.

What about the “ACACA (NM_198836) gene expression, Mean” value [1] of the same compound?
The value was 630.777.
